The values that follow are results of earlier work, collected in patent US8071607B2, “Mnk1 or Mnk2 inhibitors” (Boehringer Ingelheim International GmbH, priority 2004, dated 2011).

The target in one data set is human Mnk2 protein (Homo sapiens, UniProt Q9HBH9). The following applies: described in WO 02/103361.
For a further data set, the system named is Mnk2 (Mnk2a or Mnk2b). The following applies: cell culture cells transfected with Mnk2 (Mnk2a or Mnk2b).
The target in another data set is Mnk1 (Homo sapiens, UniProt Q9BUB5). The following applies: cell culture cells transfected with Mnk1.
Sequence of Mnk1 (Q9BUB5 whole entry): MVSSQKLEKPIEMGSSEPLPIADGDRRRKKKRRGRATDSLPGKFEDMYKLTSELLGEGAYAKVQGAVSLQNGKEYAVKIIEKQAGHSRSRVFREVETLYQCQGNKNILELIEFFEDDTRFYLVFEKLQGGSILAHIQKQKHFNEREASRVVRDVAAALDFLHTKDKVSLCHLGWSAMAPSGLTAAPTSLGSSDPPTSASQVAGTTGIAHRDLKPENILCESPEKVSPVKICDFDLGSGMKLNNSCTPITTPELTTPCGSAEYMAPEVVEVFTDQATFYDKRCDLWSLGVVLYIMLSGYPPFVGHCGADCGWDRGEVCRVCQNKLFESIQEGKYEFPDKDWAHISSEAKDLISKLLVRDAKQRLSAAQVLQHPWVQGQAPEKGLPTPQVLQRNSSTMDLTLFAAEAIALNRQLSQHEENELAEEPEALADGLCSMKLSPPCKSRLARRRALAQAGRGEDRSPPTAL

Sequence of human Mnk2 protein (Q9HBH9 whole entry): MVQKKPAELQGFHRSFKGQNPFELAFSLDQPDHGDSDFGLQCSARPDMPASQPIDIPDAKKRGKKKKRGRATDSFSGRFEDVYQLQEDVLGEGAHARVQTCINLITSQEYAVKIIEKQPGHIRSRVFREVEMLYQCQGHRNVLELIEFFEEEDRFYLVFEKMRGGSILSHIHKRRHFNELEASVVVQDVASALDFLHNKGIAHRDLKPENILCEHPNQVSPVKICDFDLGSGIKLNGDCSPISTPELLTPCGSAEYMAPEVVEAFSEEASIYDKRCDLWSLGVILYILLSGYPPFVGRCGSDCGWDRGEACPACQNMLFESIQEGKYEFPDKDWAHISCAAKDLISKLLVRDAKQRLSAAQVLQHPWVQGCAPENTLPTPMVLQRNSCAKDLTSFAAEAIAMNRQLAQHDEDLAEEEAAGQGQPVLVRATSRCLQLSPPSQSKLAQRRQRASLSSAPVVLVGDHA

As to `COC(=O)c1ccc(O)cc1` [4-hydroxybenzoic acid methyl ester], the “binding to the human Mnk2 protein” value on human Mnk2 protein is listed as “binds”.

Take `Nc1ncnc2n[nH]c(Nc3ccc(F)cc3)c12` [CGP57380]: the “phosphorylated eIF4E” value in the data set with Mnk2 (Mnk2a or Mnk2b) and at Mnk1 was “strong reduction” each time.
